{
  "source": "patent US20110008439A1",
  "about": "“DULOXETIN COMPOSITION” (priority 2006, published 2011)",
  "origin": "cited, not measured here",
  "details": "pH values less than 2.5",
  "data": [
    {"smiles": "CNCC[C@H](Oc1cccc2ccccc12)c1cccs1", "note": "[Duloxetine, duloxetine]", "values": [
      {"measurement": "Stability in solution", "result": "unstable"}
    ]}
  ]
}
